Reference: patent US20240228463A1, “SODIUM CHANNEL INHIBITORS AND METHODS OF DESIGNING SAME” (Genentech, Inc., priority 2021, published 2024)

Each compound was assayed against T1, hNaV1.7 (Homo sapiens, UniProt Q15858) (assay: Patch voltage clamp electrophysiology (EP), Syncropatch 384PE, Nav1.7 in CHO cells). Settings: hNaV1.7 EP_SP, holding potential −50 mV, inhibition based on 7.5 min compound incubation.
T1 construct: expressed in transfected cells
Assay type: cell-based
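Note: Nav1.7 stably expressed from cDNA in CHO cells, holding potential of −50 mV kept for the entire experiment.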

T1 sequence (Q15858 1-1977 isoform Q15858-3): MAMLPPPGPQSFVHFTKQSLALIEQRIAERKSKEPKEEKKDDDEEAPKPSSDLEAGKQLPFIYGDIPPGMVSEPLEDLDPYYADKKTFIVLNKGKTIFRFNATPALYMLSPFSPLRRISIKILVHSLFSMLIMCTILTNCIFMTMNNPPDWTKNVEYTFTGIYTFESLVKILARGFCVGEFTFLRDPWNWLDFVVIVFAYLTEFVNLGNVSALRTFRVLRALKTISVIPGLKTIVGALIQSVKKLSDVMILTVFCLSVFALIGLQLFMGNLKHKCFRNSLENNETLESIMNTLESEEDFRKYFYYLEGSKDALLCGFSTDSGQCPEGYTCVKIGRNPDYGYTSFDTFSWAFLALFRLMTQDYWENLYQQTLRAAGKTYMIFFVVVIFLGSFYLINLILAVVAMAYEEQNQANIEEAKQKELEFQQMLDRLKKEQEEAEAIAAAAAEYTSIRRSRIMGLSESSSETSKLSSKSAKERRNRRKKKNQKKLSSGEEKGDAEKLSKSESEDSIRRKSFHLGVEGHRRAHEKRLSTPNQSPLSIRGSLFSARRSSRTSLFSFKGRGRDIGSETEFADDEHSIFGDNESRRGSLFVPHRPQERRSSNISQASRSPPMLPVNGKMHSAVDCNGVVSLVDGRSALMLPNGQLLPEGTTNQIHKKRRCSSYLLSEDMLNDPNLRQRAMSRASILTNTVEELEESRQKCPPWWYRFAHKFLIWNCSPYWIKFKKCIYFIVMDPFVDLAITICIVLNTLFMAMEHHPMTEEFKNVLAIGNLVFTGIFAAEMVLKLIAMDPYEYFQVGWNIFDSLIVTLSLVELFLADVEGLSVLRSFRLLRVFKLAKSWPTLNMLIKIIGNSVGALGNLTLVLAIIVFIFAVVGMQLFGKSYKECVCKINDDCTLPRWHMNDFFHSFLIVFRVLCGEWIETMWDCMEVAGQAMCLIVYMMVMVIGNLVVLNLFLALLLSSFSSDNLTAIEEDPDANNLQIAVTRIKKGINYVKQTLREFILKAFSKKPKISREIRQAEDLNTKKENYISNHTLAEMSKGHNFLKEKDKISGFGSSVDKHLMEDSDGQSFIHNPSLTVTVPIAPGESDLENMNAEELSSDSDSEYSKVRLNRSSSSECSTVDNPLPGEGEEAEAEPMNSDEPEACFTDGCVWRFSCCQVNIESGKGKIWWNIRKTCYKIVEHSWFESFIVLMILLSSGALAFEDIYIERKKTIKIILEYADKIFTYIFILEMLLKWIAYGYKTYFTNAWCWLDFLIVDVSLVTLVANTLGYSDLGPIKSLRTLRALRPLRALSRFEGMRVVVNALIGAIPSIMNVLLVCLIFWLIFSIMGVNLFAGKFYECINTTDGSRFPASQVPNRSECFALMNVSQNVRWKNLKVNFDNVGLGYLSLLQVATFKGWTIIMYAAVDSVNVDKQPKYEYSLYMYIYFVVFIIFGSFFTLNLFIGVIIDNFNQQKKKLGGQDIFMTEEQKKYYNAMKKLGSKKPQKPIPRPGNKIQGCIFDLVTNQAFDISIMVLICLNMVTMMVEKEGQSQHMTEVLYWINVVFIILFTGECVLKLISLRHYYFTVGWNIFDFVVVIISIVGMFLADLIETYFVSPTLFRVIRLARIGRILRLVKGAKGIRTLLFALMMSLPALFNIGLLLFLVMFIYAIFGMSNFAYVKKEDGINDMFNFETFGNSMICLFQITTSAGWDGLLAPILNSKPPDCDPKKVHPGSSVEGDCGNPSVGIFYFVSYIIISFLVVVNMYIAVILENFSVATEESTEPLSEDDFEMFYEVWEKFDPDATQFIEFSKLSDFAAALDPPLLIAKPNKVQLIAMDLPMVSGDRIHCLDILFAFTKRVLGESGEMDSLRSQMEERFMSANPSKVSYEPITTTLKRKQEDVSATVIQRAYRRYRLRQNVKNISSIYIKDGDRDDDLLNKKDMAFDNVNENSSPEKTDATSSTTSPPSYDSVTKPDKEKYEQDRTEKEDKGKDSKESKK

With COc1cc(-c2cccc(C(F)(F)F)c2)c(F)cc1N1C(=O)CO[C@H]2CN(S(=O)(=O)Nc3noc4ccc(C5CC5)cc34)CC[C@@H]21 (single isomer, unassigned) [Example 94] the IC50 was 240 nM.

Same assay, conditions: holding potential −50 mV, inhibition based on 7.5 min compound incubation, read-out: hNaV1.7 EP_SP

First: CN(C)[C@H]1CCCC[C@@H]1Oc1ccc(S(=O)(=O)NC(=O)c2cc(C3CC3)c(OCC3CCCC3)cc2F)c(F)c1 [Example 65, 4-(cyclopentylmethoxy)-5-cyclopropyl-N-((4-(((1S,2S)-2-(dimethylamino)cyclohexyl)oxy)-2-fluorophenyl)sulfonyl)-2-fluorobenzamide]
Second: CN(C)[C@H]1CCCC[C@@H]1Oc1ccc(S(=O)(=O)Nc2noc3cc(OCC4CCCC4)c(C4CC4)cc23)c(F)c1 [Example 89, N-(6-(cyclopentylmethoxy)-5-cyclopropylbenzo[d]isoxazol-3-yl)-4-(((1S,2S)-2-(dimethylamino)cyclohexyl)oxy)-2-fluorobenzenesulfonamide]
The IC50 of the first is 14-fold lower: 25 nM for the first, 340 nM for the second.

First: CN(C)C1(C)CCCN(c2cc(F)c(S(=O)(=O)NC(=O)c3cc(Cl)c(OCC4CCCC4)cc3F)c(F)c2)C1 (centres unmarked) [Example 76, 5-chloro-4-(cyclopentylmethoxy)-N-((4-(3-(dimethylamino)-3-methylpiperidin-1-yl)-2,6-difluorophenyl)sulfonyl)-2-fluorobenzamide]
Second: O=C(NS(=O)(=O)N1CCCC12CC2)c1cc(Cl)c(OCC2CCCC2)cc1F [Example 229, N-((4-azaspiro[2.4]heptan-4-yl)sulfonyl)-5-chloro-4-(cyclopentylmethoxy)-2-fluorobenzamide]
The IC50 of the first is 2.7-fold higher: 32 nM for the first, 12 nM for the second. The second is the more potent here.

NC1CN(S(=O)(=O)NC(=O)c2cc(Cl)c(OCC3CCCC3)cc2F)C1 [Example 233, N-((3-aminoazetidin-1-yl)sulfonyl)-5-chloro-4-(cyclopentylmethoxy)-2-fluorobenzamide] and N[C@H]1CCCCN(S(=O)(=O)NC(=O)c2cc(Cl)c(OCC3CCCC3)cc2F)C1 (single isomer, unassigned) [Example 219, 2,2,2-trifluoroacetate] are within 1.5-fold of each other in IC50: 870 nM for the first, 650 nM for the second.

O=C(NS(=O)(=O)N1CCC(OCc2ccccc2)CC1)c1cc(Cl)c(OCC2CCCC2)cc1F [Example 41, N-((4-(benzyloxy)piperidin-1-yl)sulfonyl)-5-chloro-4-(cyclopentylmethoxy)-2-fluorobenzamide] and O=C(NS(=O)(=O)N1CCC(O[C@@H]2CCNC2)CC1)c1cc(Cl)c(OCC2CCCC2)cc1F (single isomer, unassigned) [Example 36, 2,2,2-trifluoroacetate] are within 1.5-fold of each other in IC50: 170 nM for the first, 200 nM for the second.

Going from COC[C@@H](C)S(=O)(=O)NC(=O)c1cc(Cl)c(OCC2CCCC2)cc1F (single isomer, unassigned) [Example 249] to CC[C@@H](C)S(=O)(=O)NC(=O)c1cc(Cl)c(OCC2CCCC2)cc1F (single isomer, unassigned) [Example 255], the IC50 falls from 110 nM to 26 nM (4.2-fold).

O=C(NS(=O)(=O)N1CCC(OC2CN(CC(F)(F)F)C2)CC1)c1cc(Cl)c(OCC2CCCC2)cc1F [Example 13, 5-chloro-4-(cyclopentylmethoxy)-2-fluoro-N-((4-((1-(2,2,2-trifluoroethyl)azetidin-3-yl)oxy)piperidin-1-yl)sulfonyl)benzamide] and CN1CC[C@H](OC2CCN(S(=O)(=O)NC(=O)c3cc(Cl)c(OCC4CCCC4)cc3F)CC2)C1 (single isomer, unassigned) [Example 326] are within 1.5-fold of each other in IC50: 240 nM for the first, 230 nM for the second.

First: O=C(NS(=O)(=O)c1ccc2c(c1)NCC2)c1cc(Cl)c(OCC2CCCC2)cc1F [Example 282, 5-chloro-4-(cyclopentylmethoxy)-2-fluoro-N-(indolin-6-ylsulfonyl)benzamide]
Second: O=C(NS(=O)(=O)c1ccc2c(c1)OCCO2)c1cc(Cl)c(OCC2CCCC2)cc1F [Example 281, 5-chloro-4-(cyclopentylmethoxy)-N-((2,3-dihydrobenzo[b][1,4]dioxin-6-yl)sulfonyl)-2-fluorobenzamide]
The IC50 of the first is 2.4-fold higher: 760 nM for the first, 320 nM for the second.

First: CC(C)COc1cc(F)c(C(=O)NS(=O)(=O)N2CCC(OC3CN(C)C3)CC2)cc1C1CC1 [Example 237, 5-cyclopropyl-2-fluoro-4-isobutoxy-N-((4-((1-methylazetidin-3-yl)oxy)piperidin-1-yl)sulfonyl)benzamide formic acid]
Second: O=C(NS(=O)(=O)N1CCC(OC2CCNC2)CC1)c1cc(C2CC2)c(OCC2CCCC2)cc1F (stereo in doubt) [Example 30, (S)-4-(cyclopentylmethoxy)-5-cyclopropyl-2-fluoro-N-((4-(pyrrolidin-3-yloxy)piperidin-1-yl)sulfonyl)benzamide 2,2,2-trifluoroacetate]
The IC50 of the first is 3.1-fold higher: 50 nM for the first, 16 nM for the second.

Going from CCOc1ccc(S(=O)(=O)NC(=O)c2cc(Cl)c(OCC3CCCC3)cc2F)cn1 [Example 285, 5-chloro-4-(cyclopentylmethoxy)-N-((6-ethoxypyridin-3-yl)sulfonyl)-2-fluorobenzamide] to Cc1ccccc1S(=O)(=O)NC(=O)c1cc(Cl)c(OCC2CCCC2)cc1F [Example 242, 5-chloro-4-(cyclopentylmethoxy)-2-fluoro-N-(o-tolylsulfonyl)benzamide], the IC50 falls from 350 nM to 110 nM (3.2-fold). The second is the more potent here.

O=C(NS(=O)(=O)[C@@H]1C[C@H]1c1ccccc1)c1cc(Cl)c(OCC2CCCC2)cc1F (relative stereo) [Example 284, 5-chloro-4-(cyclopentylmethoxy)-2-fluoro-N-((trans-2-phenylcyclopropyl)sulfonyl)benzamide] and C[C@@H]1Cc2ccccc2N(S(=O)(=O)NC(=O)c2cc(Cl)c(OCC3CCCC3)cc2F)C1 (single isomer, unassigned) [Example 17] are within 1.5-fold of each other in IC50: 120 nM for the first, 100 nM for the second.

First: CC(C)S(=O)(=O)NC(=O)c1cc(Cl)c(OCC2CCCC2)cc1F [Example 247, 5-chloro-4-(cyclopentylmethoxy)-2-fluoro-N-(isopropylsulfonyl)benzamide]
Second: C[C@@H]1CCCN1S(=O)(=O)NC(=O)c1cc(Cl)c(OCC2CCCC2)cc1F (single isomer, unassigned) [Example 222]
The IC50 of the first is 1.6-fold higher: 52 nM for the first, 33 nM for the second. The second is the more potent here.

First: CC(C)/C=C/c1cc2cnc(NS(=O)(=O)c3cc(Cl)c(N[C@H]4CCCC[C@@H]4N(C)C)cc3F)cc2n1C [Example 102, 5-chloro-4-(((1S,2S)-2-(dimethylamino)cyclohexyl)amino)-2-fluoro-N-(1-methyl-2-((E)-3-methylbut-1-en-1-yl)-1H-pyrrolo[3,2-c]pyridin-6-yl)benzenesulfonamide]
Second: COc1ccccc1-n1cc(S(=O)(=O)NC(=O)c2cc(Cl)c(OCC3CCCC3)cc2F)cn1 [Example 291, 5-chloro-4-(cyclopentylmethoxy)-2-fluoro-N-((1-(2-methoxyphenyl)-1H-pyrazol-4-yl)sulfonyl)benzamide]
The IC50 of the first is 1.9-fold higher: 650 nM for the first, 350 nM for the second.

First: NC[C@H]1CCCN(S(=O)(=O)NC(=O)c2cc(Cl)c(OCC3CCCC3)cc2F)C1 (single isomer, unassigned) [Example 27, 2,2,2-trifluoroacetate]
Second: O=C(NS(=O)(=O)N1CCC2CCNCC2C1)c1cc(Cl)c(OCC2CCCC2)cc1F (centres unmarked) [Example 321, 5-chloro-4-(cyclopentylmethoxy)-2-fluoro-N-((octahydro-2,7-naphthyridin-2(1H)-yl)sulfonyl)benzamide]
The IC50 of the first is 2.3-fold lower: 90 nM for the first, 210 nM for the second.

First: CN(C)C[C@@H]1CN(S(=O)(=O)NC(=O)c2cc(Cl)c(OCC3CCCC3)cc2F)CCO1 (single isomer, unassigned) [Example 28]
Second: NCC1CN(S(=O)(=O)NC(=O)c2cc(C3CC3)c(OCC3CCCC3)cc2F)CCO1 (centres unmarked) [Example 330, N-((2-(aminomethyl)morpholino)sulfonyl)-4-(cyclopentylmethoxy)-5-cyclopropyl-2-fluorobenzamide]
The IC50 of the first is 2.7-fold lower: 230 nM for the first, 620 nM for the second.

COc1ccc(COc2ccc(S(=O)(=O)NC(=O)c3cc(Cl)c(OCC4CCCC4)cc3F)cc2)cc1 [Example 309, 5-chloro-4-(cyclopentylmethoxy)-2-fluoro-N-((4-((4-methoxybenzyl)oxy)phenyl)sulfonyl)benzamide] and COc1cc(COc2ccc(S(=O)(=O)NC(=O)c3cc(Cl)c(OCC4CCCC4)cc3F)cc2)cc(OC)c1 [Example 306, 5-chloro-4-(cyclopentylmethoxy)-N-((4-((3,5-dimethoxy-benzyl)oxy)phenyl)sulfonyl)-2-fluorobenzamide] are within 1.5-fold of each other in IC50: 120 nM for the first, 170 nM for the second.

First: O=C(NS(=O)(=O)c1cnn(-c2ccccc2F)c1)c1cc(Cl)c(OCC2CCCC2)cc1F [Example 269, 5-chloro-4-(cyclopentylmethoxy)-2-fluoro-N-((1-(2-fluorophenyl)-1H-pyrazol-4-yl)sulfonyl)benzamide]
Second: O=C(NS(=O)(=O)c1ccc(OC2CC2)cc1)c1cc(Cl)c(OCC2CCCC2)cc1F [Example 276, 5-chloro-4-(cyclopentylmethoxy)-N-((4-cyclopropoxyphenyl)sulfonyl)-2-fluorobenzamide]
The IC50 of the first is 7.2-fold higher: 940 nM for the first, 130 nM for the second.

Going from O=S(=O)(Nc1noc2cc(OCC3CCCC3)c(Cl)cc12)N1CCC(O[C@H]2CCNC2)CC1 (single isomer, unassigned) [Example 90, 2,2,2-trifluoroacetate] to O=S(=O)(Nc1noc2cc(OCC3CCCC3)c(C3CC3)cc12)N1CCC(O[C@H]2CCNC2)CC1 (single isomer, unassigned) [Example 92, 2,2,2-trifluoroacetate], the IC50 falls from 400 nM to 69 nM (5.8-fold). The second is the more potent here.

First: O=C(NS(=O)(=O)N1CCC(CC2CNC2)CC1)c1cc(Cl)c(OCC2CCCC2)cc1F [Example 40, N-((4-(azetidin-3-ylmethyl)piperidin-1-yl)sulfonyl)-5-chloro-4-(cyclopentylmethoxy)-2-fluorobenzamide 2,2,2-trifluoroacetate]
Second: O=C(NS(=O)(=O)c1ccc(OCC(F)(F)F)cc1)c1cc(Cl)c(OCC2CCCC2)cc1F [Example 287, 5-chloro-4-(cyclopentylmethoxy)-2-fluoro-N-((4-(2,2,2-trifluoro-ethoxy)phenyl)sulfonyl)benzamide]
The IC50 of the first is 4.2-fold lower: 59 nM for the first, 250 nM for the second. The first is the more potent here.

With CC(=O)N1CCc2cccc(COc3ccc(S(=O)(=O)NC(=O)c4cc(Cl)c(OCC5CCCC5)cc4F)cc3)c2C1 [Example 297, N-((4-((2-acetyl-1,2,3,4-tetrahydroisoquinolin-8-yl)methoxy)phenyl)sulfonyl)-5-chloro-4-(cyclopentylmethoxy)-2-fluorobenzamide] the IC50 was 22 nM.
